We go through 29 molecules from ChEMBL document CHEMBL5236556, “Development of Cdc2-like Kinase 2 Inhibitors: Achievements and Future Directions” (J Med Chem, 2021).

The target of assay [1] is T1, Dual specificity protein kinase CLK2 (Homo sapiens, UniProt P49760). Briefly: Inhibition of human CLK2 at 1 uM.
Target sequence in this assay (P49760 whole entry, looked up): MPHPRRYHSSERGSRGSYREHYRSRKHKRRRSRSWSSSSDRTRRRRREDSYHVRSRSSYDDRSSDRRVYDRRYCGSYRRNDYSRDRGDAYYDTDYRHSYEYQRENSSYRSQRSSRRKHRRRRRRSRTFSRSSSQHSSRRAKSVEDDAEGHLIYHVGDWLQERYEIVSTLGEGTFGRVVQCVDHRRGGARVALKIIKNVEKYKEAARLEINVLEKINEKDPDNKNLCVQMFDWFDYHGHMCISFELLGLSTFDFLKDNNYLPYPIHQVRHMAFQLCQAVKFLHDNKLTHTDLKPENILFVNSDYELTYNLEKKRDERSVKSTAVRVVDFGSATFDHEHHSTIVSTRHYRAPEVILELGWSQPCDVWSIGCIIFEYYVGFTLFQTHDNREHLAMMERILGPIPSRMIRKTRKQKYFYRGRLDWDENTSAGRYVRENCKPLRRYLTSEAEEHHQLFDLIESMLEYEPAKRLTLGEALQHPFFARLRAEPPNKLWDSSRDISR
The species named for assay [2] is Homo sapiens. The assay is described as follows: Selectivity ratio of IC50 for inhibition of human CLK3 to IC50 for inhibition of human CLK2 by biochemical caliper assay.
The target of assay [3] is T2, Dual specificity protein kinase CLK3 (Homo sapiens, UniProt P49761).
Target sequence in this assay (P49761 whole entry): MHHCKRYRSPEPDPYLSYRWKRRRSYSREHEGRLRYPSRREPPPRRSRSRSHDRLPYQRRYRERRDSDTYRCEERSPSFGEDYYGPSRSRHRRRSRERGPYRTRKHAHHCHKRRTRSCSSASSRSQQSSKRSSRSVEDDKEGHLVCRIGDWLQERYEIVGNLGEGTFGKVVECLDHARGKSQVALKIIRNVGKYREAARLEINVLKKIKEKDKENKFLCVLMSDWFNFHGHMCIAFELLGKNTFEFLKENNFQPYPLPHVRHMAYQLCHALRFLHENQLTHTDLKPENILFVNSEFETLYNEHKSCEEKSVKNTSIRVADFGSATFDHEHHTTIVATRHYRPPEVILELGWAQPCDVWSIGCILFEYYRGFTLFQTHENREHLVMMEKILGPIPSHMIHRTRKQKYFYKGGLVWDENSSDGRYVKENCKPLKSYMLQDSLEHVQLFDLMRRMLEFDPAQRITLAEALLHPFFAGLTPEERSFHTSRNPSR
In assay [4] the target is T1, Dual specificity protein kinase CLK2.
Target sequence in this assay (P49760 whole entry): as the sequence (P49760 whole entry, looked up) above
The target in assay [5] is T3, Dual specificity protein kinase CLK1 (Homo sapiens, UniProt P49759).
Assay [6] deals with T1, Dual specificity protein kinase CLK2. The assay is described as follows: Inhibition of CLK2 (unknown origin).
Target sequence in this assay (P49760 whole entry): as the sequence (P49760 whole entry, looked up) above
Assay [7] addresses T3, Dual specificity protein kinase CLK1. The assay is described as follows: Inhibition of CLK1 (unknown origin).
Assay [8] has as its target T4, Dual specificity protein kinase CLK4 (Homo sapiens, UniProt Q9HAZ1).
Assay [9] can be described thus: Antifibrotic activity in TGF-beta1 induced primary human lung fibroblast. Type of assay: functional, cell-based.
In assay [10] the target is T2, Dual specificity protein kinase CLK3. The assay is described as follows: Inhibition of human CLK3 assessed as residual activity at 3 uM.
Target sequence in this assay (P49761 whole entry, looked up): as the sequence (P49761 whole entry) above
The subject of assay [11] is Triple-negative breast cancer cell. The assay is described as follows: Antitumour activity expressed in triple negative breast cells (unknown origin) with dysfunctional G1-S checkpoint. Type of assay: functional, cell-based. Conditions: Homo sapiens.
The next assay deals with Lung cancer cell line. The assay is described as follows: Cytotoxicity against lung cancer cells (unknown origin). Type of assay: functional, cell-based. Conditions: Homo sapiens.
The species entered for the next assay is Mus musculus. Briefly: Induction of autophagy in APAP induced liver injury mouse model. Type of assay: functional, organism-based.
The next assay relates to Cancer cell lines. The assay is described as follows: Antiproliferative activity against cancer cells (unknown origin). Type of assay: functional, cell-based. Conditions: Homo sapiens.
Assay [12] deals with SRSF protein kinase 1 (Homo sapiens) (UniProt Q96SB4). The assay is described as follows: Inhibition of SRSF phosphorylation in human HeLa cells. In kind it is cell-based.
The target of assay [13] is T1, Dual specificity protein kinase CLK2. Briefly: Inhibition of human CLK2 measured by DSF assay.
Target sequence in this assay (P49760 whole entry, looked up): as the sequence (P49760 whole entry, looked up) above
Another assay has as its system MDA-MB-231. The assay is described as follows: Cytotoxicity against MDA-MB-231 cells (unknown origin) assessed as supressed cell growth. Type of assay: functional, cell-based. Conditions: Homo sapiens.
In another assay the test system is T-24. Briefly: Cytotoxicity against T24 cells (unknown origin) assessed as supressed cell growth. In kind it is functional, cell-based. Conditions: Homo sapiens.
A further assay concerns PC-3. The assay is described as follows: Cytotoxicity against human PC-3 cells. In kind it is functional, cell-based.
The next assay deals with MCF7. Briefly: Cytotoxicity against human MCF7 cells. Type of assay: functional, cell-based.
For assay [14], the species on record is Homo sapiens. Briefly: Inhibition of DYRK kinase (unknown origin) at 100 uM.
In assay [15] the target is T3, Dual specificity protein kinase CLK1. The assay is described as follows: Inhibition of human CLK1 administered orally.
For assay [16], the target named is T4, Dual specificity protein kinase CLK4. The assay is described as follows: Inhibition of human CLK4 administered orally.
Assay [17] concerns the target T2, Dual specificity protein kinase CLK3. The assay is described as follows: Inhibition of human CLK3 administered orally.
Target sequence in this assay (P49761 whole entry): as the sequence (P49761 whole entry) above
Assay [18] has as its target T1, Dual specificity protein kinase CLK2. Briefly: Inhibition of human CLK2 administered orally.
Target sequence in this assay (P49760 whole entry): as the sequence (P49760 whole entry, looked up) above

Activity calls are given as the source filed them. The rule behind the calls is not given here. Where only a bound is given, the exact number is not on record here.

T4 sequence (Q9HAZ1 whole entry): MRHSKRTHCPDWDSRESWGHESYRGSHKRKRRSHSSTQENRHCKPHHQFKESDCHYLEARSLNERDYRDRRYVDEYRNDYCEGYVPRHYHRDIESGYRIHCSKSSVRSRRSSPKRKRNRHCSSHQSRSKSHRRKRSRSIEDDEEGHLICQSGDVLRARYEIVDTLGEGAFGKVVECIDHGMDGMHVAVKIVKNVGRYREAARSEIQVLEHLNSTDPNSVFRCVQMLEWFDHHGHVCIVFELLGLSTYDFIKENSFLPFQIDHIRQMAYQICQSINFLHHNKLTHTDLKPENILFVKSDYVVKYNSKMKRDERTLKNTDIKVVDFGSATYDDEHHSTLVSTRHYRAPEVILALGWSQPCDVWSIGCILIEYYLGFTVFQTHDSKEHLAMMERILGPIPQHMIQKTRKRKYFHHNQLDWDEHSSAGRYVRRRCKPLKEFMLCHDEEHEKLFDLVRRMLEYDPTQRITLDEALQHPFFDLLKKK
T3 sequence (P49759 whole entry): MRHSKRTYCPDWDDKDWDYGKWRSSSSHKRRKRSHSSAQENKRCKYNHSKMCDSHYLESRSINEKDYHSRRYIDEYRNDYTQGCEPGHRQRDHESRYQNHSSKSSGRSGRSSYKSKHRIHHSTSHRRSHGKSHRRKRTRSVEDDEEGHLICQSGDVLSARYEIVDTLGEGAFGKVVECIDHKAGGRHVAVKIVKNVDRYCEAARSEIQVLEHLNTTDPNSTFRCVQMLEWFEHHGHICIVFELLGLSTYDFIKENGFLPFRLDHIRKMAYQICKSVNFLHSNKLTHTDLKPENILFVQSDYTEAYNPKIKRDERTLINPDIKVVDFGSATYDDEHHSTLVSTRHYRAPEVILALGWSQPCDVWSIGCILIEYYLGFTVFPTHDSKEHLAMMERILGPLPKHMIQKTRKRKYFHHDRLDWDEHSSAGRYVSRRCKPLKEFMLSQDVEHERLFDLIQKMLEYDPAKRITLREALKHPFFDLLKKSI
Sequence of SRSF protein kinase 1 (Homo sapiens) (Q96SB4 whole entry): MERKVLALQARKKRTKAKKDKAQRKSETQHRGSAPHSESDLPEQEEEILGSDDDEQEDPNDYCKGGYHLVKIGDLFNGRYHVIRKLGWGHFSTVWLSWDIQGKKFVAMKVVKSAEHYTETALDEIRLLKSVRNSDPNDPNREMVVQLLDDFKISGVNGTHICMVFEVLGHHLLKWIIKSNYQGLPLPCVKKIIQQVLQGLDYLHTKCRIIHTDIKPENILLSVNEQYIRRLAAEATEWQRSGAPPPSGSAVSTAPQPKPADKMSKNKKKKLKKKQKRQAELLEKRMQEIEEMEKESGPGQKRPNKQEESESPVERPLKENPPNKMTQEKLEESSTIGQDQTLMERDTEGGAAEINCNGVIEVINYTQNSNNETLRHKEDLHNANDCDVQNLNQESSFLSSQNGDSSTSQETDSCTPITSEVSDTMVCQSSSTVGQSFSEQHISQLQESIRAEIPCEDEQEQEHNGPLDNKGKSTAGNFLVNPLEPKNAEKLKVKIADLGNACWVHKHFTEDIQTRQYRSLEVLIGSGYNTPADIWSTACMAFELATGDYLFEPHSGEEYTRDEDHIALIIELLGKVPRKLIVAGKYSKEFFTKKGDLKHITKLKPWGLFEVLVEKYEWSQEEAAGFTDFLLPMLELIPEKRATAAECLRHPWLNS

In general, inhibition refers to the share of the control response that was lost under treatment. Regarding `COc1ccc2sc(C(=O)N(C)OC)cc2c1`, the inhibition in [1] is 73%.

`Cc1[nH]nc2ccc(-c3cncc(OC[C@@H](N)CC(C)C)c3)cc12`: the Ratio IC50 in the assay filed under Homo sapiens [2] is 225.

Broadly, the IC50 is the midpoint of a concentration-inhibition curve. A lower IC50 goes with greater potency in that assay. On to `Cc1nc2ccc3sc(NC(=O)c4ccc5scnc5c4)nc3c2s1`, for which the IC50 in assay [3] turned out to be 346 nM; in assay [4], 68 nM; in [5], 51 nM.

For the molecule `Cc1ccc(CNc2ncnc3ccc(-c4ccc(CO)o4)cc23)o1`, the half-maximal inhibitory concentration (IC50) in assay [3] was above 10000 nM.

In the case of `COc1cccc2c1[nH]c1c3ccncc3cc(C#N)c21`, the IC50 in [6] was 41 nM; in assay [7], 44 nM.

`c1csc(CNc2ncnc3ccc(-c4ccc5c(c4)OCO5)cc23)c1`: the IC50 in assay [3] is 470 nM; in assay [8], 50 nM; in [4] it was 680 nM; in [5], 37 nM.

Take `CC(C)(CO)c1ccc(C(=O)Nc2cn3cc(-c4cn[nH]c4)ccc3n2)cn1`: the IC50 turned out to be 2.1 nM in [4] and 1.1 nM in assay [5].

One may read the EC50 as the concentration at which the effect is half-maximal. The low end stands for higher potency in that assay, the high end for lower potency in that assay. For `O=C(Nc1cccnc1)c1c[nH]nc1-c1nc2c(-c3cccc(F)c3)cccc2[nH]1`, the midpoint of the response in assay [9], the EC50, lay at 18 nM. Besides, in assay [4], the IC50 worked out at 11 nM.

`COc1cc(Nc2nccc(-c3cnn4nc(OC)ccc34)n2)cc(C(F)(F)F)c1`: in assay [5], the IC50 was found to be 13 nM. This lies in the double-digit nanomolar range.

For `c1cc(-c2ccc3[nH]ncc3c2)ccn1`, the inhibition in assay [1] is 85%. The same molecule yielded an IC50 in [5] of 113 nM.

As for `CNC(=O)c1ccc(Nc2nc(OC3CCCC3)c3c(-c4ccc5nc(C)oc5c4)c[nH]c3n2)c(OC)c1`, the Activity in assay [10] is 60%. The result (in [11]; in the assay with Lung cancer cell line) was Active.

On to `C[C@@H](c1ccc(F)cc1)n1nnc2cnc3ccc(-c4ccc5ocnc5c4)cc3c21`, for which, in the assay filed under Mus musculus, the outcome was Active. For the same molecule, 8 nM corresponded to half-maximal inhibition in [3] (IC50).

Take `CC(C)(C)c1ccc(C(=O)Nc2cn3cc(-c4ccncc4)ccc3n2)cn1`: the IC50 in [4] came to 2.4 nM; in assay [5], 1.1 nM.

As for `N=C1NC(=O)/C(=C/c2ccc3c(c2)CCO3)S1`, in [4], the midpoint of inhibition, the IC50, lay at 6800 nM.

For `CC(C)n1cnc2c(Nc3cc(N)cc(Cl)c3)nc(NC3CCCCC3N)nc21` (stereo not drawn), the IC50 in [3] turned out to be 1000 nM; in assay [8] it was 25 nM; in assay [4], 6 nM; in assay [5] it was 17 nM.

Consider `CC(C)c1cnn2c(NCc3ccc(-c4ccccn4)cc3)nc(N[C@H]3CC[C@H](N)CC3)nc12`, for which the half-maximal inhibitory concentration (IC50) in assay [3] worked out at 2.9 nM; in assay [8] it was 89 nM; in assay [4], 130 nM; in assay [5], 100 nM.

Turning to `O=C1NCc2ccc3c(-c4cccc(Cl)c4)c[nH]c3c21`, in the assay with Cancer cell lines, the outcome was Active. Further, the IC50 was found to be 28 nM in assay [3], 510 nM in assay [4] and 88 nM in assay [5].

Regarding `CN1CCN(C(=O)C(C)(C)c2ccc(C(=O)Nc3cn4cc(-c5ccncc5)ccc4n3)cc2)CC1`, the inhibition result in assay [12] was “Dose-Dependent Effect”.

In the case of `CCOC(=O)c1c(/C(C#N)=C\N)c2ccc(Cl)c(Cl)c2n1C`, the inhibition result in assay [13] is “Active”.

On to `COc1ccc2sc(C(=O)N(C)Cc3cccc(F)c3)cc2c1`, for which the values for the IC50 in [8], in assay [4] and in assay [5] were 2.3 nM, 19.1 nM and 7 nM, respectively. In addition, the result in the assay with MDA-MB-231 and in the assay with T-24 was Active.

On to `COc1c(O)ccc2c(=O)c3c(O)cc4c(c3[nH]c12)C=CC(C)(C)O4`, for which the IC50 in assay [3] was above 2000 nM; in assay [5] it was 210 nM.

Take `O=C1NC(Nc2ccccc2)=N/C1=C\c1ccc2c(c1)OCO2`: the half-inhibitory concentration (IC50) in assay [3] was above 10000 nM; in [8], 64 nM.

Turning to `CN1C(=O)/C(=C/c2ccc3c(c2)OCO3)N=C1N` [LEUCETTAMINE B], in assay [4], the 50% inhibitory concentration (IC50) was found to be 720 nM. This lies in the sub-micromolar range.

Take `COc1cc(/C=C2\N=C(N)NC2=O)ccc1O` [POLYANDROCARPAMINE A]: the half-maximal inhibitory concentration (IC50) in assay [3] was above 2000 nM; in assay [8], 470 nM; in assay [4], 640 nM; in assay [5], 470 nM.

In the case of `O=[N+]([O-])c1ccccc1-n1cc(COc2cccc3cnc(Nc4cccc(Cl)c4)nc23)nn1`, the half-maximal inhibitory concentration (IC50) in the assay on PC-3 was 7000 nM; in assay [3], above 1000 nM; with MCF7 it was 4000 nM; in [8], 20 nM; in [4], 27 nM; in assay [5], 11 nM. For the same molecule, the inhibition result in the assay listed under Homo sapiens [14] was “inactive”.

`O=C(O)c1nc2ccccc2c2[nH]c3c(Cl)cccc3c12`: the IC50 in [3] was above 100 nM; in assay [8], 45 nM; in [5], 130 nM.

Regarding `O=C1NCc2c(Cl)cc3c(-c4ccccc4)c[nH]c3c21`, the concentration for half-maximal inhibition (IC50) in assay [3] is 300 nM; in assay [4], 33 nM; in [5], 380 nM.

As to `CNc1nc(NCc2ncccn2)c2c(-c3ccc4ncccc4c3)c[nH]c2n1`, the IC50 in assay [15] worked out at 4.8 nM; in assay [16], 0.61 nM; in [17], 6.5 nM; in assay [18] it was 0.096 nM.

For the molecule `COc1ccc(NC(=O)c2n[nH]c3ccc(-c4cncc(CN5CCCCC5)c4)cc23)cc1`, in assay [4], it took 0.822 nM to reach half-maximal inhibition (IC50). This lies in the sub-nanomolar range.
